Assays:
[1] = test system: γ-H2A.X foci in U-2 OS IndDR-GFP cells; experiment: γ-H2A.X foci formation (immunofluorescence); format: cell-based, human; conditions: indicated concentrations, cisplatin-treated cells
Description: U-2 OS IndDR-GFP cells were seeded into 8-well polystyrene vessel culture slides at 5 × 10^4 cells/well. The next day, cells were pretreated with B02-iso or 0.1% DMSO (for control cells) for 1 h, followed by the treatment with 5 µM cisplatin for 4 h or left untreated (for control cells). After 4 h of incubation, cells were placed on ice, washed with PBS buffer (twice, 5 min each), pretreated with 0.5% Triton X-100 for 5 min, washed with PBS (twice, 5 min each). Cells were removed from ice and fixed with 4% methanol-free formaldehyde (Pierce; Waltham, […], USA) in PBS for 10 min. Cells were washed with PBS (twice, 5 min each), placed on ice, and permeabilized with 1% Triton X-100 in PBS for 10 min. Cells were removed from ice, washed with PBS (once, 5 min), blocked with a blocking buffer (5% BSA (Bovine Serum Albumin) in PBS) for 30 min, and incubated with rabbit polyclonal RAD51 antibody (1:1000, GeneTex, GTX100469) and mouse monoclonal anti-phospho-histone H2A.X (Ser 139) antibody (1:20,000, clone JBW301, Millipore 05-636) in blocking buffer, containing 0.3% Triton X-100 overnight at 4 °C. […] For foci quantification, 50 cells were chosen for each treatment condition at random, and foci number was counted using ImageJ software. […]

[2] = molecular target: T1, HsRAD51 (Homo sapiens, UniProt Q06609); experiment: Surface plasmon resonance (SPR) binding to immobilized RAD51; conditions: 25 °C, equilibrium analysis, ± SD, read-out: KD, equilibrium dissociation constant of direct binding to hRAD51
T1 sequence (Q06609 1-339): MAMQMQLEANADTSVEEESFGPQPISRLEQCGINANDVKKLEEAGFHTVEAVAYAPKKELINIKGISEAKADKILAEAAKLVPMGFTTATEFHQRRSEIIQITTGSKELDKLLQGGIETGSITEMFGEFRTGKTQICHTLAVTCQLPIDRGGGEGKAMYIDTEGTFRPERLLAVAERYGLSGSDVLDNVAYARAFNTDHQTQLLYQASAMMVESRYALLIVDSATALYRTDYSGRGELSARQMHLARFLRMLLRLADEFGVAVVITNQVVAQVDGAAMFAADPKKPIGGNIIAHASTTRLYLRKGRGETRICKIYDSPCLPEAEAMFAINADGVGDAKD
Description: The binding of RAD51i to RAD51 was examined using a ProteOn XPR36 SPR Protein Interaction Array System (Bio-Rad, Hercules, CA, USA) at 25 °C. ProteOn GLH sensor chips were preconditioned with two 10 s pulses of 50 mM NaOH, 100 mM HCl, and 0.5% SDS followed by the system equilibration with the running buffer (20 mM sodium phosphate, 150 mM NaCl, and 0.005% Tween 20, pH 7.4). The surface of a GLH sensorchip was subsequently activated with a 1:100 dilution of a 1:1 mixture of 0.2 M EDC and 0.05 M Sulfo-NHS. Purified HsRAD51 was diluted to 500 µg/mL in 10 mM sodium acetate, pH 5.5, and injected immediately after chip activation across the ligand flow channels at 30 µL/min for 5 min. Unreacted protein was washed out, and the excess of unreacted ester groups on the sensor surface was capped by an injection of 1 M ethanolamine-HCl, pH 8.0, at 5 µL/min for 5 min. A reference surface to correct for nonspecific binding was similarly created by immobilizing an IgG b12 anti-HIV-1 gp120 antibody (IgG b12 anti-HIV-1 gp120; was obtained through the NIH AIDS Reagent Program, Division of AIDS, NIAID, NIH: Anti-HIV-1 gp120 Monoclonal (IgG1 b12) from Drs. Dennis Burton and Carlos Barbas). Serial dilutions of the compounds were prepared in the running buffer supplemented with 8% DMSO and injected at a flow rate of 100 μL/min for a 1 min association phase, followed by a 5 min dissociation phase using the “one-shot kinetics” functionality of the ProteOn instrument. Data were analyzed with ProteOn Manager Software version 3.0 (Bio-Rad; Hercules, CA, USA). The responses from the reference flow cell were subtracted to account for the non-specific binding and injection artifacts. Experiments were repeated at least three times. The equilibrium dissociation constants (KD) for the interactions were calculated in ProteOn Manager Version 3.1.0.6 (Bio-Rad; Hercules, CA, USA) using the equilibrium analysis function.

[3] = test system: MDA-MB-231 cells; experiment: EdU cell proliferation assay, MDA-MB-231; format: cell-based, human; conditions: 24 h
Description: Exponentially growing MDA-MB-231 and MCF 10A cells were seeded into 6-well plates at a density of 1.5 × 10^5 cells/well in the presence of indicated concentrations of B02-iso or 0.1% DMSO (for control cells). After 24 h of incubation, cells were labeled with 10 µM Edu (Invitrogen; Waltham, […], USA) for 1 h or left unlabeled in the control. Cells were harvested and centrifuged at 500× g, 4 °C for 5 min, and cell pellets were washed with PBS supplemented with 1% BSA, spun down, and fixed with 4% methanol-free formaldehyde (Pierce) in PBS for 15 min. Cells were washed with PBS containing 1% BSA, centrifuged 500× g for 5 min. Cell pellets were resuspended in PBS containing 0.1% Triton X-100 and incubated for 15 min for permeabilization. Cells were spun down, resuspended in freshly prepared Edu click labeling solution (1 mM CuSO4, 1.25 µM Alexa Fluor 488 Azide (Invitrogen; Waltham, […], USA), 50 mM ascorbic acid in PBS) and incubated for 30 min in the dark. Cells were washed twice with PBS containing 0.1% Triton X-100, resuspended in the same buffer, and analyzed for Edu incorporation by flow cytometry using the Guava easyCyte system (Millipore; Burlington, VT, USA) with the InCyte software (Millipore; Burlington, VT, USA).

Kd [2]: 14.6 ± 6.2 µM
Structure (SMILES): O=c1nc(/C=C/c2cccnc2)n(Cc2ccccc2)c2ccccc12 [B02-iso]
Level of γ-H2A.X foci [1]: did not reduce the level of γ-H2A.X foci
Fraction of DNA-replicating cells (EdU) ([3]; MDA-MB-231, 4 µM): remained unchanged
Reduction of fraction of DNA-replicating cells (EdU) ([3]; MDA-MB-231, 8 µM): approximately 20%

— article PMC8235719, “New RAD51 Inhibitors to Target Homologous Recombination in Human Cells” (Genes, 2021)
